We go through two compounds from article PMC5917077, “CD22-Binding Synthetic Sialosides Regulate B Lymphocyte Proliferation Through CD22 Ligand-Dependent and Independent Pathways, and Enhance Antibody Production in Mice” (Frontiers in Immunology, 2018).

Experiment [1] deals with T1, CD22 (Siglec-2) (Homo sapiens, UniProt P20273).
T1 construct: amino-terminal domains (domains 1–3) fused to Fc region of human IgG1 (CD22-Fc)
T1 sequence (P20273 20-326 limits assumed): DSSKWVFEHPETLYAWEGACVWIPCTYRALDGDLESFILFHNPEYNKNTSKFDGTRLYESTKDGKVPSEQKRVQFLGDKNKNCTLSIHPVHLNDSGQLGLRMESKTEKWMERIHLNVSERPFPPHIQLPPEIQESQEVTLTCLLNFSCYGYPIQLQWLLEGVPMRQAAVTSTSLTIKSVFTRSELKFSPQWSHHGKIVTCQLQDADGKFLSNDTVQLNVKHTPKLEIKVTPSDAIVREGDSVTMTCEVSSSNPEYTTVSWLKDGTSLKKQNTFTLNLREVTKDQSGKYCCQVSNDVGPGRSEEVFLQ
Put plainly: competition ELISA, human CD22-Fc binding to immobilized α1-acid glycoprotein.

Experiment [2] addresses T2, CD22 (Siglec-2) (Mus musculus, UniProt P35329).
T2 construct: amino-terminal domains (domains 1–3) fused to Fc region of human IgG1 (CD22-Fc)
T2 sequence (P35329 22-347 limits assumed): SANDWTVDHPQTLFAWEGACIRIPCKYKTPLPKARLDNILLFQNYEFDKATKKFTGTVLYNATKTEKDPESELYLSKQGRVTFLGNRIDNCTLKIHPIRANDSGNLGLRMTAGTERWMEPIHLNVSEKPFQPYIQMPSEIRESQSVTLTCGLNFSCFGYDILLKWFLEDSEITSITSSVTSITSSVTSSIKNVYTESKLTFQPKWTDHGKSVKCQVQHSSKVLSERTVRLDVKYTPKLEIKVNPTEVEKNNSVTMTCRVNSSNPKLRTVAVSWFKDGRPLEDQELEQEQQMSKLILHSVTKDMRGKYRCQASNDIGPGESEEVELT
Put plainly: competition ELISA, mouse CD22-Fc binding to immobilized biotinylated synthetic CD22 ligand.

In the case of `O=C(Cc1ccc(-c2ccc(O)cc2)cc1)NC[C@@H](O)[C@@H](O)[C@@H]1O[C@@](OCc2ccccc2)(C(=O)O)C[C@H](O)[C@H]1NC(=O)CO` [GSC718], the 50% inhibitory concentration (IC50) in experiment [1] and in experiment [2] was ~100 nM throughout.
`O=C(Cc1ccc(-c2ccc(O)cc2)cc1)NC[C@@H](O)[C@@H](O)[C@@H]1OC(OCc2ccc(F)cc2)(C(=O)O)C[C@H](O)[C@H]1NC(=O)CO` (stereo partly shown) [GSC839]: the IC50 in experiment [1] and in experiment [2] was ~100 nM in each case.
